Results as given in paper PMC8005090, “Bioanalytical Method Development and Validation Study of Neuroprotective Extract of Kashmiri Saffron Using Ultra-Fast Liquid Chromatography-Tandem Mass Spectrometry (UFLC-MS/MS): In Vivo Pharmacokinetics of Apocarotenoids and Carotenoids” (Molecules, 2021).
Where two headings read alike, the source gives them in different places.

Legend:
[1] = Stability of analytes in rat plasma (autosampler, room temperature, freeze-thaw); format: in vitro ADME; conditions: for analyte stability in plasma: LQC and HQC, processed plasma samples, stable under restricted storage conditions; for Room Temperature Stability (%, mean ± SD) / Autosampler Stability (%, mean ± SD) / Freeze-Thaw Stability (%, mean ± SD): rat plasma, n = 6; for Room Temperature Stability (%, mean ± SD): ambient temperature 4 h; for Autosampler Stability (%, mean ± SD): autosampler 8 °C for 24 h; for Freeze-Thaw Stability (%, mean ± SD): three freeze-thaw cycles at −20 ± 4 °C
Method: The stability was performed at different sets of working and storage conditions. […] The stability conditions of the method studied were at ambient temperature for 4 h (room-temperature stability), in the autosampler at 8 °C conditions for 24 h (autosampler stability), and with three freeze-thaw cycles at −20 ± 4 °C condition (freeze-thaw stability). The samples were prudent to be stable if the measured concentration was within ±15% of the nominal concentration.

[2] = Oral pharmacokinetics of CSE constituents in rat plasma (UFLC-MS/MS); format: in vivo, Sprague–Dawley rats; conditions: single oral CSE 40 mg/kg, n = 6, mean ± SEM
Method: The PK parameters were calculated by non-compartmental analysis. The PK parameters, such as maximum plasma concentration (Cmax) and the time to reach the maximum plasma concentration (Tmax), were derived directly from the experimental data. The trapezoidal equation calculated the areas under the plasma concentration-time curves from 0 to the time of the last quantifiable concentration (AUC0−t). The AUC was extrapolated to infinity AUC0-∞ using Ct/Kel, where Ct is the last measured MET concentration. Kel is the elimination rate constant determined from the terminal slope of the log concentration-time plot. The Kel was obtained from the linear regression curve slope by fitting the terminal concentrations’ natural logarithms versus time. The terminal elimination half-life (t1/2) was calculated by 0.693/Kel. The clearance (CL) was calculated as the quotient of the dose (D) and AUC0−∞. All values were expressed as mean ± SEM.
Male Sprague–Dawley rats (250–300 g) were purchased from Crystal Biological Solution, Pune, Maharashtra, India. The animal studies were sanctioned by the Animal Ethics Committee of Crystal Biological Solution, Pune. It was carried out following the Animal Ethics Procedures and Guidelines of Control and Supervision of Experiments on Animals (CPCSEA) committee requirements. Animals were housed 3–4 per cage in rooms with constant temperature (25 ± 2 °C), humidity (50 ± 20%), and 12 h dark-light cycle. All animals in the oral group fasted overnight before the dosing, and food was provided 8 h post-dose, and water was ad libitum. The investigational CSE was fed orally to an individual rat as per its body weight.
The UFLC-MS/MS analysis was performed on a Shimadzu UFLC system (Kyoto, Japan) consisting of a DGU-20A5R degasser, LC-30AD pump, SIL-30AC autosampler, CTO-20AC column oven. The chromatographic separation was carried out in a single analytical run divided into loading and eluting phases by alternating the electronic valve. At the loading phase (−1–0 min), the auto-sampler was responsible for injecting 50 µL of the sample. The LC-30AD pump was responsible for delivering water containing 0.1% formic acid to the pre-column (Phenomenex Security Guard ULTRA with C8 Cartridge) at 0.8 mL/min to remove protein and retain analytes. At the eluting phase (0–12 min), the retained components were flushed from the pre-column into the analytical column (Dr. Maisch GmbH Reprosil Gold XBD C8, 50 mm × 4.6 mm, i.d., 1.8 µm) eluting as per time programmed gradient. The flow rate of the mobile phase was 0.8 mL/min. The mobile phase consists of a mixture of water containing 0.1% formic acid (%v/v) (A) and 100% acetonitrile (B). The gradient elution program was carried out for chromatographic separation: 0.01–1.91 min, 20% B; 1.91–5.91 min, 2090% B; 5.91–6.91 min, 90–80% B; 6.91–8.24 min, 80–20% B; and 8.24–12 min, 20% B. The column oven temperature was set at 30 °C. The MS/MS analysis was carried out on an LCMS-8045 triple-quadrupole mass spectrometer (Shimadzu, Kyoto, Japan) equipped with positive and negative electrospray ionization (ESI) interfaces using the MRM mode. The compound and source dependent parameters were defined as follows: nitrogen was used as nebulizing and drying gas; argon was used as the collision gas. Quadruple voltage was set at Q1 RF gain: 4998 Q1 RF offset 4990 and Q1 post-rod bias: −5.0 V CID CELL exit lens: −4.0 V, interface: ESI, interface temperature: 350 °C, desolvation line (DL) temperature: 250 °C, nebulizing gas flow: 2.50 L/min, heating gas flow: 10.00 L/min heat block: 300 °C; drying gas flow: 10.00 L/min.
An aliquot of 45 µL of rat plasma was spiked with each 5 µL of IS1 and IS2, and 200 µL of methanol was added, vortexed for 1–2 min, then centrifuged for 10 min at 2000 RPM. Collect the supernatant into HPLC vials and injected it into the UFLC-MS/MS system for analysis. […]

[3] = tested on: mice; parameters: method as in PMID 28471166, PMID 31459089, PMID 33404280; conditions: by inducing autophagy mediated by AMPK pathway activation; cited from earlier work
[4] = male, Sprague-Dawley, rat, plasma, po, 40 mg/kg
[5] = male, Sprague-Dawley, rat, plasma, po, 40 mg/kg, read-out: Tmax

| SMILES | analyte stability in plasma [1] | half-life [2, 4] [min] | Tmax [2, 5] [h] | AUC(0-inf) ([2]; male, Sprague-Dawley) [ng·h/mL] | AUC(0-t) ([2]; male, Sprague-Dawley) [ng·h/mL] | Cmax ([2]; male, Sprague-Dawley) [ng/mL] | CL [2] | Vd [2] [L/kg] | Tmax [2] [h] | Room Temperature Stability (%, mean ± SD) ([1]; nominal 30.00 ng/mL (LQC)) [ng/mL] | Autosampler Stability (%, mean ± SD) ([1]; nominal 30.00 ng/mL (LQC)) [ng/mL] | Freeze-Thaw Stability (%, mean ± SD) ([1]; nominal 30.00 ng/mL (LQC)) [ng/mL] | Room Temperature Stability (%, mean ± SD) ([1]; nominal 2400.00 ng/mL (HQC)) [ng/mL] | Autosampler Stability (%, mean ± SD) ([1]; nominal 2400.00 ng/mL (HQC)) [ng/mL] | Freeze-Thaw Stability (%, mean ± SD) ([1]; nominal 2400.00 ng/mL (HQC)) [ng/mL] | memory function [3] |
| --- | --- | --- | --- | --- | --- | --- | --- | --- | --- | --- | --- | --- | --- | --- | --- | --- |
| CC1=C(C=O)C(C)(C)CC=C1 [SAF, safranal] | stable |  |  |  |  |  |  |  |  |  |  |  |  |  |  |  |
| CC(/C=C/C=C(\C)C(=O)OC1OC(COC2OC(CO)C(O)C(O)C2O)C(O)C(O)C1O)=C\C=C\C=C(C)\C=C\C=C(/C)C(=O)OC1OC(COC2OC(CO)C(O)C(O)C2O)C(O)C(O)C1O (stereo not drawn) [T4C, trans-4-GG-crocin] |  | 202 ± 60 | 3.5 ± 0.57 | 370 ± 75.6 | 277 ± 67.7 | 49.3 ± 11.2 | 19,568.35 ± 4835.41 mL/h/kg | 69.250 ± 16.150 |  |  |  |  |  |  |  |  |
| CC1=C(C=O)C(C)(C)C[C@H](O[C@@H]2O[C@H](CO)[C@@H](O)[C@H](O)[C@H]2O)C1 [PIC, picrocrocin] | stable | 47.6 ± 4.68 | 0.67 | 3820 ± 257 | 3690 ± 274 | 2720 ± 231 | 1935.88 ± 123.45 mL/h/kg | 2.258 ± 0.3168 | 0.792 ± 0.10 | 30.40 ± 0.92 | 29.52 ± 1.26 | 29.98 ± 1.66 | 2406.19 ± 94.01 | 2463.69 ± 113.42 | 2498.53 ± 111.53 |  |
| CC(/C=C/C=C(\C)C(=O)OC1OC(CO)C(O)C(O)C1O)=C\C=C\C=C(C)\C=C\C=C(/C)C(=O)OC1OC(CO)C(O)C(O)C1O (stereo not drawn) [T2C, trans-2-gg-crocin] |  | 345 ± 43.8 | 4.34 ± 0.51 | 1680 ± 238 | 1530 ± 197 | 160 ± 15.2 | 234.77 ± 31.12 mL/h/kg | 2.006 ± 0.457 |  |  |  |  |  |  |  |  |

Second part, led by results:

| analyte stability in plasma [1] | half-life [2, 4] [min] | Tmax [2, 5] [h] | AUC(0-inf) ([2]; male, Sprague-Dawley) [ng·h/mL] | AUC(0-t) ([2]; male, Sprague-Dawley) [ng·h/mL] | Cmax ([2]; male, Sprague-Dawley) [ng/mL] | CL [2] | Vd [2] [L/kg] | Tmax [2] [h] | Room Temperature Stability (%, mean ± SD) ([1]; nominal 30.00 ng/mL (LQC)) [ng/mL] | Autosampler Stability (%, mean ± SD) ([1]; nominal 30.00 ng/mL (LQC)) [ng/mL] | Freeze-Thaw Stability (%, mean ± SD) ([1]; nominal 30.00 ng/mL (LQC)) [ng/mL] | Room Temperature Stability (%, mean ± SD) ([1]; nominal 2400.00 ng/mL (HQC)) [ng/mL] | Autosampler Stability (%, mean ± SD) ([1]; nominal 2400.00 ng/mL (HQC)) [ng/mL] | Freeze-Thaw Stability (%, mean ± SD) ([1]; nominal 2400.00 ng/mL (HQC)) [ng/mL] | SMILES | memory function [3] |
| --- | --- | --- | --- | --- | --- | --- | --- | --- | --- | --- | --- | --- | --- | --- | --- | --- |
|  | 276 ± 164 | 3.5 ± 1.09 | 55.5 ± 31.2 | 20.4 ± 9.64 | 7.59 ± 4.71 | 114,958.33 ± 71,000.46 mL/h/kg | 325.573 ± 13.099 |  |  |  |  |  |  |  | CC(/C=C/C=C(\C)C(=O)OC1OC(CO)C(O)C(O)C1O)=C\C=C\C=C(C)\C=C\C=C(/C)C(=O)OC1OC(COC2OC(CO)C(O)C(O)C2O)C(O)C(O)C1O (stereo not drawn) [T3C, trans-3-Gg-crocin] |  |
| stable | > 660 | 6.83 ± 1.68 | 30700 | 23600 | 2080 ± 374 |  |  | 6.84 ± 1.69 |  |  |  |  |  |  | CC(/C=C/C=C(\C)C(=O)O)=C\C=C\C=C(C)\C=C\C=C(/C)C(=O)O [TCT, trans crocetin] | improved memory function |
|  | 94.2 ± 94.2 | 3.25 ± 1.05 | 407 ± 187 | 396 ± 113 | 86.1 ± 15.7 | 326.37 ± 445.89 mL/h/kg | 4.29 ± 1.94 |  |  |  |  |  |  |  | CC(=C/C=C/C=C(C)/C=C/C=C(\C)C(=O)OC1OC(COC2OC(CO)C(O)C(O)C2O)C(O)C(O)C1O)/C=C/C=C(\C)C(=O)OC1OC(COC2OC(CO)C(O)C(O)C2O)C(O)C(O)C1O (stereo not drawn) [C4C, cis-4-GG-crocin] |  |
